In this assay the target is ROCK2 (human) (UniProt O75116). Nature of the assay: Assessment of ROCK2 Kinase Activity by Luciferase Assay.
Sequence of ROCK2 (human) (O75116 whole entry, looked up): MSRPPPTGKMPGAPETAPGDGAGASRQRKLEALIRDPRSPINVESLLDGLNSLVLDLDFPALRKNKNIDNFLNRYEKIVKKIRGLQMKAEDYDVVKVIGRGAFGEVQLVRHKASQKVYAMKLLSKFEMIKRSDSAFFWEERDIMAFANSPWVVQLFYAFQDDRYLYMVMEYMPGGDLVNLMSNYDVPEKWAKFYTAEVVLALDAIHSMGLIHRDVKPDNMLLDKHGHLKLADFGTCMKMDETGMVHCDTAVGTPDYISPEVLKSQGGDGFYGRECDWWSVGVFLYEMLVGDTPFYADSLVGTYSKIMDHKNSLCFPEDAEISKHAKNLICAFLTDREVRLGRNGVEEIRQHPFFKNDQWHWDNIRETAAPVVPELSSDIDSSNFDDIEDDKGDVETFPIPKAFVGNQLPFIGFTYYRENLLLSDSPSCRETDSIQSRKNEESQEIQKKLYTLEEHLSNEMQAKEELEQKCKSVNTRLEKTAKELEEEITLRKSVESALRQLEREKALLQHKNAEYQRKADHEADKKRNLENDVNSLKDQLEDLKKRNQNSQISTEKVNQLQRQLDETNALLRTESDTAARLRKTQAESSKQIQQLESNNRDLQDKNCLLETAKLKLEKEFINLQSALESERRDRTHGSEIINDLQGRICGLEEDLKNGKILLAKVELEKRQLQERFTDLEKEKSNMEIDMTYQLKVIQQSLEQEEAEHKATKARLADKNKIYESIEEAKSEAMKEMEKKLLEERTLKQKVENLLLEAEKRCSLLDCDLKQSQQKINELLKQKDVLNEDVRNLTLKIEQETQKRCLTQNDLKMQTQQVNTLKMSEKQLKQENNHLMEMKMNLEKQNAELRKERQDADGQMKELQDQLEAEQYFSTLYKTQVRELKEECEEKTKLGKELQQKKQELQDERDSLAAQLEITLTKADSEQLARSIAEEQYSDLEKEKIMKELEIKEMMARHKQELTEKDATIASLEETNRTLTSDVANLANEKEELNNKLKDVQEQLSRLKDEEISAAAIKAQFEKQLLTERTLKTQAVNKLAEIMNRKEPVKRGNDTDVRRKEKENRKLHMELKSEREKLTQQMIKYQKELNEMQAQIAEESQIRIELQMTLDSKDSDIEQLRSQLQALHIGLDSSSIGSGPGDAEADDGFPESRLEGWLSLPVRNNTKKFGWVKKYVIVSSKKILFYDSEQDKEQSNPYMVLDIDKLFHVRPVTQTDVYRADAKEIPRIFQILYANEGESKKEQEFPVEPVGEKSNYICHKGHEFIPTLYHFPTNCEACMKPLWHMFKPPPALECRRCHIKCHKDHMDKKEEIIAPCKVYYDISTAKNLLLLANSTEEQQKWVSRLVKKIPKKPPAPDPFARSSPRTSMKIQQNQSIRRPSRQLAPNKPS

`CN(C)Cc1ccc(NC(=O)c2cccc(CNC(=O)Nc3cccc(C(N)=O)c3)c2)cc1` returned an IC50 of 0.24 µM.

Take `COc1ccc(C(=O)NCc2cccc(C(=O)Nc3ccc4cnccc4c3)c2)cc1OC`: the IC50 is 0.685 µM.

The molecule `COc1ccc(C(=O)NCc2cccc(C(=O)NCCC3CCCN(C)C3)c2)cc1OC` (stereo unspecified) yielded an IC50 of 0.102 µM. Against the preceding molecule, the IC50 is about 6.7-fold lower.

For `COc1ccc(C(=O)NCc2cccc(C(=O)Nc3ccc(CN(C)C)cc3)c2)cc1`, the IC50 stood at 1.3 µM. For the molecule `CN(C)Cc1ccc(NC(=O)c2cccc(CNC(=O)c3ccc(OC(F)(F)F)c(Cl)c3)c2)cc1`, the IC50 was determined as 0.67 µM. `COc1ccc(C(=O)NCc2cccc(C(=O)Nc3ccc(CN(C)C)cc3)c2)cc1C(F)(F)F` had an IC50 of 0.16 µM. Molecule `COc1ccc(C(=O)NCc2cccc(C(=O)Nc3ccc(CN(C)C)cc3)c2)cc1C` returned an IC50 of 0.266 µM.

The molecule `COc1ccc(C(=O)NCc2cccc(C(=O)Nc3ccc4c(c3)CCNC4)c2)cc1OC` displayed an IC50 of 0.1 µM.

For `CN(C)Cc1ccc(NC(=O)c2cccc(CNC(=O)c3ccc(C#N)cc3)c2)cc1`, the IC50 was 1.7 µM. `COc1ccc(C(=O)NCc2cccc(C(=O)Nc3ccc4c(c3)CNCC4)c2)cc1OC` yielded a Kd of 0.007 µM. On to `N#Cc1ccc(NC(=O)NCc2cccc(C(=O)Nc3ccc(CN)cc3)c2)cc1`, for which the IC50 turned out to be 0.07 µM. This counts as double-digit nanomolar.

As for `N#Cc1ccc(NC(=O)NCc2cccc(NC(=O)CCC3CCCNC3)c2)cc1` (stereo unspecified), the IC50 was 0.11 µM. This IC50 is about 1.6-fold higher than that of the molecule before. For `COc1ccc(NC(=O)NCc2cccc(C(=O)NCCC3CCCNC3)c2)cc1OC` (stereo unspecified), the IC50 was determined as 1.6 µM. For `COc1ccc(NC(=O)Cc2cccc(NC(=O)CCC3CCCNC3)c2)cc1OC` (stereo unspecified), the IC50 was found to be 0.037 µM. With `COc1ccc(C(=O)NCc2cccc(C(=O)NCCC3CCCNC3)c2)cc1OC` (stereo unspecified), the Kd stood at 0.018 µM.

For the molecule `N#Cc1ccc(NC(=O)NCc2cccc(C(=O)NCCC3CCNCC3)c2)cc1`, the IC50 was found to be 0.065 µM. In other words, the double-digit nanomolar range. Turning to `CN(C)Cc1ccc(NC(=O)c2cccc(CNC(=O)Nc3ccc(C(N)=O)cc3)c2)cc1`, the IC50 came to 0.008 µM. This IC50 lies about 8.1-fold lower than the previous one. `COc1ccc(CC(=O)Nc2cccc(C(=O)NCCC3CCCNC3)c2)cc1OC` (stereo unspecified) registered an IC50 of 3.2 µM. For `CN(C)Cc1ccc(NC(=O)c2cccc(CNC(=O)Nc3ccc(C(N)=O)c(Cl)c3)c2)cc1`, the IC50 turned out to be 0.074 µM.

Regarding `COc1ccc(C(=O)NCc2cccc(C(=O)NCC3CCCO3)c2)cc1OC` (stereo unspecified), the IC50 was found to be 1200 µM. The same measure, in the same setting: then `CN(C)Cc1ccc(NC(=O)c2cccc(CNC(=O)Nc3ccc(C#N)c(Cl)c3)c2)cc1`, with 0.01 µM.

Source of the values: the Kinase Knowledgebase extract (Sharma et al. 2016).
